From patent US11713331B2, “Benzene 1,4-bis(bisphosphonic acid)-based metal complexes, method of synthesis and applications thereof” (priority 2020, dated 2023)
Where two headings read alike, the source gives them in different places.

Columns and labels:
[1] = Binding assay to hydroxyapatite (HA); settings: 0.5 mg/mL, 20 mg HA, PBS
Description: Hydroxyapatite (HA) treatment. […] The experiment was carried out for 0-12 days, in stirring at 120 rpm. […] The supernatant was centrifuged for 8 min (500 rcf) and the absorbance was measured at 231 nm. Solid samples were characterized by SEM-EDS, TGA, and PXRD.
The experiment was carried out for 0-12 days, in constant stirring at 120 rpm. […] The supernatant was centrifuged for 8 min (500 rcf) and the absorbance was measured at 231 nm. Solid samples were characterized by SEM-EDS and PXRD.

[2] = system: human breast cancer MDA-MB-231 cell line; type: cell-based; settings: 0-200 μM
Description: (§1) Cell Culture Methods. Media with DMEM, 5% FBS, and 1% Pen-Strep were used to incubate MDA-MB-231 cells at 37° C. with 5% CO2. The osteoblast hFOB 1.19 cell line was incubated at 34° C., 5% CO2, in 1:1 DMEM:F-12 supplemented with 0.3 mg/mL G418, and 10% FBS. Cell passages were performed weekly at 80.0% confluency. Media exchanges were carried out twice every 7 d.
(§2) Cell treatment. […] Cells (MDA-MB-231, hFOB 1.19) were seeded in 96 well plates at a density of 2.5×10^5 cells/mL. The 96 well plates were incubated at 37° C. with 5% CO2 for 24 h. Three 96 well plates were prepared per time point (24, 48, and 72 h). […] Cells were incubated at 37° C. and 5% CO2 for 24, 48, and 72 h. Control groups were treated with media (MDA-MB-231 with DMEM, 1% Pen-Strep) and (hFOB 1.19 with 1:1 DMEM:F-12, 0.3 mg/mL G418). Cell proliferation was determined after each point time of treatment. A 10% AlamarBlue® solution was previously prepared using PBS. The media was removed from all 96 well plates and 100 μL of AlamarBlue® solution was added. The 96 well plates were incubated for 4 h (MDA-MB-231 at 37° C., 5% CO2) and (hFOB 1.19 at 34° C., 5% CO2). The fluorescence was measured at 560 nm of excitation and lambda max 590 nm of emission. […] The experiments for the % RCL were performed employing the same conditions previously mentioned for the IC50 determination. All experiments were accomplished in triplicate. The GraphPad Prism 8 vs 8.3.1 was utilized to generate the IC50 curves and to plot the % RCL graphs.
(§3) Furthermore, the cytotoxicity of these materials was also achieved using the osteoblast-like hFOB 1.19 cell line, within work, these immortalized human cells were used to simulate the human bone microenvironment (not cancerous cells). […] Control groups were treated with media (DMEM, 1% Pen-Strep, MDA-MB-231) and (1:1 DMEM:F12, 0.3 mg/mL G418, hFOB 1.19), respectively. AlamarBlue® assay was employed to determine cell proliferation after each time point.
as §1, with “Methods—Media” for “Methods. Media”, “CO2” for “CO2,”
(§4) Cell seeding—Both cells were seeded in 96 well plates at a density of 2.5×10^5 cells/mL. The 96 well plates were incubated at 37° C. (MDA-MB-231) and 34° C. […] Experiments were performed in triplicate.
(§5) (MDA-MB-231) and 34° C. […] All experiments were accomplished in triplicate.

[3] = system: normal osteoblast-like hFOB 1.19 cell line; type: cell-based; settings: 0-200 μM
Description: as §1, §2, §3
as §1, with “Methods—Media” for “Methods. Media”, “CO2” for “CO2,”
as §4, §5

[4] = after 7 days, binding curve before reported; cited from earlier work

| Molecule | % Binding to HA ([1]; 0 d) [%] | % Binding to HA ([1]; 1 d) [%] | % Binding to HA ([1]; 2 d) [%] | % Binding to HA ([1]; 3 d) [%] | % Binding to HA ([1]; 4 d) [%] | IC50 ([2]; MDA-MB-231, 24 h of treatment) [µM] | IC50 ([2]; MDA-MB-231, 48 h of treatment) [µM] | IC50 ([2]; MDA-MB-231, 72 h of treatment) [µM] | IC50 ([3]; hFOB 1.19, 24 h of treatment) [µM] | IC50 ([3]; hFOB 1.19, 48 h of treatment) [µM] | IC50 ([3]; hFOB 1.19, 72 h of treatment) [µM] | % Binding to HA [4] [%] |
| --- | --- | --- | --- | --- | --- | --- | --- | --- | --- | --- | --- | --- |
| benzene 1,4-bis(bisphosphonic acid) [BBPA] | 0 | 1 | 39 | 54 | 74 | > 200 | > 200 | > 200 | > 200 | > 200 | > 200 | – |
| NCCCC(O)(P(=O)(O)O)P(=O)(O)O [ALEN, Alendronic acid] | – | – | – | – | – | – | – | – | – | – | – | > 95 |
